In brackets after ≈: the same amount, converted by molar mass.
Tests used:
Assay type in all cases: functional
[1] = system: Staphylococcus aureus; assay: Antibacterial activity against Staphylococcus aureus ATCC 25923 by two-fold serial dilution method
[2] = system: Staphylococcus aureus; assay: Antibacterial activity against methicillin-resistant Staphylococcus aureus ATCC 43300 by two-fold serial dilution method
[3] = system: Staphylococcus aureus; assay: Antibacterial activity against clinical isolate methicillin-resistant Staphylococcus aureus by two-fold serial dilution method

| Compound | MIC [1] [µg/mL] | MIC [2] [µg/mL] | MIC [3] [µg/mL] |
| --- | --- | --- | --- |
| CC(=O)n1cc([C@@H]2CC[C@H](c3cn(C(C)=O)c4ccccc34)c3c2[nH]c2ccccc32)c2ccccc21 (relative stereo) | 100 (≈ 206 µM) | 100 (≈ 206 µM) | 100 (≈ 206 µM) |
| CC(=O)n1cc([C@H]2CCC[C@@H](c3c[nH]c4ccccc34)c3[nH]c4ccccc4c32)c2ccccc21 (relative stereo) | 25 (≈ 54.6 µM) | 12.5 (≈ 27.3 µM) | 12.5 (≈ 27.3 µM) |
| Clc1ccc2[nH]cc([C@@H]3CC[C@@H](c4c[nH]c5ccc(Cl)cc45)c4c3[nH]c3ccc(Cl)cc43)c2c1 (relative stereo) | 3.12 (≈ 6.19 µM) | 6.25 (≈ 12.4 µM) | 12.5 (≈ 24.8 µM) |
| Clc1ccc2[nH]cc([C@@H]3CCC[C@@H](c4c[nH]c5ccc(Cl)cc45)c4c3[nH]c3ccc(Cl)cc43)c2c1 (relative stereo) | 3.12 (≈ 6.02 µM) | 6.25 (≈ 12 µM) | 6.25 (≈ 12 µM) |
| c1ccc2c([C@@H]3CC[C@@H](c4c[nH]c5ccccc45)c4c3[nH]c3ccccc43)c[nH]c2c1 (relative stereo) | 3.12 (≈ 7.78 µM) | 3.12 (≈ 7.78 µM) | 6.25 (≈ 15.6 µM) |
| Clc1ccc2c([C@@H]3CC[C@@H](c4c[nH]c5cc(Cl)ccc45)c4c3[nH]c3cc(Cl)ccc43)c[nH]c2c1 (relative stereo) | 12.5 (≈ 24.8 µM) | 12.5 (≈ 24.8 µM) | 12.5 (≈ 24.8 µM) |
| c1ccc2c([C@@H]3C[C@@H](c4c[nH]c5ccccc45)c4c3[nH]c3ccccc43)c[nH]c2c1 (relative stereo) | 50 (≈ 129 µM) | 12.5 (≈ 32.3 µM) | 12.5 (≈ 32.3 µM) |
| CC1(C)S[C@@H]2[C@H](NC(=O)[C@H](N)c3ccccc3)C(=O)N2[C@H]1C(=O)O [AMPICILLIN] | 1.56 (≈ 4.46 µM) | 50 (≈ 143 µM) | 50 (≈ 143 µM) |
| CC(=O)n1cc([C@H]2CCC[C@@H](c3cn(C(=O)O)c4ccccc34)c3[nH]c4ccccc4c32)c2ccccc21 (relative stereo) | 100 (≈ 199 µM) | 50 (≈ 99.7 µM) | 50 (≈ 99.7 µM) |
| c1ccc2c([C@@H]3CCCC[C@@H](c4c[nH]c5ccccc45)c4c3[nH]c3ccccc43)c[nH]c2c1 (relative stereo) | 3.12 (≈ 7.27 µM) | 6.25 (≈ 14.5 µM) | 12.5 (≈ 29.1 µM) |
| BrC1[C@@H](c2c[nH]c3ccccc23)c2[nH]c3ccccc3c2[C@@H]1c1c[nH]c2ccccc12 (relative stereo) | 3.12 (≈ 6.7 µM) | 3.12 (≈ 6.7 µM) | 6.25 (≈ 13.4 µM) |
| CC1(C)S[C@@H]2[C@H](NC(=O)[C@@H](N)c3ccccc3)C(=O)N2[C@H]1C(=O)OCOC(=O)[C@@H]1N2C(=O)C[C@H]2S(=O)(=O)C1(C)C | 0.78 (≈ 1.31 µM) | 25 (≈ 42 µM) | 25 (≈ 42 µM) |
| Clc1ccc2c([C@@H]3CCC[C@@H](c4c[nH]c5cc(Cl)ccc45)c4c3[nH]c3cc(Cl)ccc43)c[nH]c2c1 (relative stereo) | 3.12 (≈ 6.02 µM) | 6.25 (≈ 12 µM) | 12.5 (≈ 24.1 µM) |
| c1ccc2c([C@@H]3CCC[C@@H](c4c[nH]c5ccccc45)c4c3[nH]c3ccccc43)c[nH]c2c1 (relative stereo) | 3.12 (≈ 7.52 µM) | 6.25 (≈ 15 µM) | 12.5 (≈ 30.1 µM) |
| ClC1[C@@H](c2c[nH]c3ccccc23)c2[nH]c3ccccc3c2[C@@H]1c1c[nH]c2ccccc12 (relative stereo) | 3.12 (≈ 7.41 µM) | 3.12 (≈ 7.41 µM) | 6.25 (≈ 14.8 µM) |
| CC(=O)n1cc([C@H]2CC[C@@H](c3cn(C(C)=O)c4ccccc34)c3c2c2ccccc2n3C(C)=O)c2ccccc21 (relative stereo) | 50 (≈ 94.8 µM) | 50 (≈ 94.8 µM) | 50 (≈ 94.8 µM) |

— ChEMBL document CHEMBL3739363, “Discovery of bisindolyl-substituted cycloalkane-anellated indoles as novel class of antibacterial agents against S. aureus and MRSA” (2016)
